What was measured:
Format in all cases: cell-based
SW480 colon cancer cells = test: Cell viability assay (CellTiter-Blue), four days; details: Homo sapiens, 96 h, CellTiter-Blue cell viability
Protocol: Representative compounds were screened using the following assay procedure to assess the effect on cell viability as described below.
Each compound was dissolved in DMSO as a 10 mM stock and used to prepare compound source plates. Serial dilution (1:3, 8-point dose-response curves from 10 μM to 0.0045 μM) and compound transfer was performed using the ECHO 550 (Labcyte, Sunnyvale, Calif.) into 96-well clear bottom, black-walled plates (Corning-Costar).
Approximately 2×10^3 SW480 colon cancer cells were seeded into each well and allowed to incubate in the presence or absence of compound for four days at 37° C./5% CO2. Eight replicates of DMSO-treated cells served as controls and cells treated with compound were performed in duplicate.
After incubation, 20 μL of CellTiter-Blue (Promega) was added to each well allowed to incubate for approximately 3 hours. This reagent was a buffered solution which contains resazurin, metabolically active cells were able to reduce rezarurin (blue) into resorufin (pink) which was highly fluorescent. This measured fluorescence was used as a readout for cell viability.
After incubation, the plates were read at Ex 560 nm Em 590 nm (Cytation 3, BioTek). Dose-response curves were generated and EC50 concentration values were calculated using non-linear regression curve fit in the GraphPad Prism (San Diego, Calif.) or Dotmatics' Studies Software (Bishops Stortford, UK). For EC50 of >10 μM, the percent inhibition at 10 μM is provided.

[1] = test system: Wnt activity (Wnt-responsive human Sp5 promoter, TCF/LEF binding sites) in SW480 colon carcinoma cells; test: Wnt activity screening assay: Sp5-Luc luciferase reporter gene in SW480 cells; details: 10-point dose-response from 10 μM, incubated overnight
Description: The screening assay for Wnt activity is described as follows. Reporter cell lines can be generated by stably transducing cancer cell lines (e.g., colon cancer) or primary cells (e.g., IEC-6 intestinal cells) with a lentiviral construct that includes a Wnt-responsive promoter driving expression of the firefly luciferase gene.
SW480 colon carcinoma cells were transduced with a lentiviral vector expressing luciferase with a human Sp5 promoter consisting of a sequence of eight TCF/LEF binding sites. SW480 cells stably expressing the Sp5-Luc reporter gene and a hygromycin resistance gene were selected by treatment with 150 μg/mL of hygromycin for 7 days. These stably transduced SW480 cells were expanded in cell culture and used for all further screening activities. Each compound was dissolved in DMSO as a 10 mM stock and used to prepare compound source plates. Serial dilution (1:3, 10-point dose-response curves starting from 10 μM) and compound transfer was performed using the ECHO 550 (Labcyte, Sunnyvale, Calif.) into 384-well white solid bottom assay plates (Greiner Bio-One) with appropriate DMSO backfill for a final DMSO concentration of 0.1%. For Sp5-Luc reporter gene assays, the cells were plated at 4,000 cells/well in 384-well plates with medium containing 1% fetal bovine serum and incubated overnight at 37° C. and 5% CO2. Following incubation, 20 μl of BrightGlo luminescence reagent (Promega) was added to each well of the 384-well assay plates. The plates were placed on an orbital shaker for 2 min and then luminescence was quantified using the Envision (Perkin Elmer) plate reader. Readings were normalized to DMSO only treated cells, and normalized activities were utilized for EC50 calculations using the dose-response log (inhibitor) vs. response-variable slope (four parameters) nonlinear regression feature available in GraphPad Prism 5.0 (or Dotmatics). For EC50 of >10 μM, the percent inhibition at 10 μM is provided.

[2] = test system: Primary human fibroblasts derived from IPF patients (LL29 cells) treated with TGF-β1; test: Inhibition of the fibrotic process: αSMA staining in TGF-β1 treated fibroblasts; details: Fibroblast, 96 h, LL29 fibroblasts treated with TGF-β1, 4 days
Description: Representative compounds were screened using primary human fibroblasts (derived from IPF patients) treated with TGF-β1 to determine their ability to inhibit the fibrotic process.
Primary human fibroblasts derived from IPF patients (LL29 cells) [^1Xiaoqiu Liu, et. al., “Fibrotic Lung Fibroblasts Show Blunted Inhibition by cAMP Due to Deficient cAMP Response Element-Binding Protein Phosphorylation”, Journal of Pharmacology and Experimental Therapeutics (2005), 315(2), 678-687; ^2Watts, K. L., et. al., “RhoA signaling modulates cyclin D1 expression in human lung fibroblasts; implications for idiopathic pulmonary fibrosis”, Respiratory Research (2006), 7(1), 88] were obtained from American Type Culture Collection (ATCC) and expanded in F12 medium supplemented with 15% Fetal Bovine Serum and Penicillin/Streptomycin.
Each compound was dissolved in DMSO as a 10 mM stock and used to prepare compound source plates. Serial dilution (1:2, 11-point dose-response curves from 10 μM to 1.87 nM) and compound transfer was performed using the ECHO 550 (Labcyte, Sunnyvale, Calif.) into 384-well clear bottom assay plates (Greiner Bio-One) with appropriate DMSO backfill for a final DMSO concentration of 0.1%. LL29 cells are plated at 1,500 cells/well in 80 μL/well F12 medium supplemented with 1% Fetal Bovine Serum. One hour after addition of the cells, TGF-β1 (Peprotech; 20 ng/mL) was added to the plates to induce fibrosis (ref. 1 and 2 above). Wells treated with TGF-β1 and containing DMSO were used as controls. Cells were incubated at 37° C. and 5% CO2 for 4 days. Following incubation for 4 days, SYTOX green nucleic acid stain (Life Technologies [Thermo Fisher Scientific]) was added to the wells at a final concentration of 1 μM and incubated at room temperature for 30 min. Cells were then fixed using 4% formaldehyde (Electron Microscopy Sciences), washed 3 times with PBS followed by blocking and permeabilization using 3% Bovine Serum Albumin (BSA; Sigma) and 0.3% Triton X-100 (Sigma) in PBS. Cells were then stained with antibody specific to α-smooth muscle actin (αSMA; Abcam) (ref. 1 and 2 above) in 3% Bovine Serum Albumin (BSA; Sigma) and 0.3% Triton X-100 (Sigma) in PBS, and incubated overnight at 4° C. Cells were then washed 3 times with PBS, followed by incubation with Alexa Flor-647 conjugated secondary antibody (Life Technologies [Thermo Fisher Scientific]) and DAPI at room temperature for 1 hour. Cells were then washed 3 times with PBS and plates were sealed for imaging. αSMA staining was imaged by excitation at 630 nm and emission at 665 nm and quantified using the Compartmental Analysis program on the CellInsight CX5 (Thermo Scientific). Dead or apoptotic cells were excluded from analysis based on positive SYTOX green staining. % of total cells positive for αSMA were counted in each well and normalized to the average of 11 wells treated with TGF-β1 on the same plate using Dotmatics' Studies Software. The normalized averages (fold change over untreated) of 3 replicate wells for each compound concentration were used to create dose-responses curves and EC50 values were calculated using non-linear regression curve fit in the Dotmatics' Studies Software. For EC50 of >10 μM, the percent inhibition at 10 μM is provided.

[3] = test system: IL-6 in human monocyte cell line (THP-1 cells); test: IL-6 inhibition in LPS-stimulated THP-1 cells (HTRF); details: IL-6 in LPS-stimulated THP-1 cells, HTRF
Protocol: Human monocyte cell line (THP-1 cells; Catalog # TIB-202, ATCC, Manassas, Va.) were cultured in Roswell Park Memorial Institute (RPMI) 1640 Medium (Catalog #21870-100, Buffalo, N.Y.) with 1% L-glutamine, 1% HEPES, 1% Sodium Pyruvate, 2% Sodium Bicarbonate supplemented with 100 units/mL penicillin, 50 μg/mL streptomycin, 2-mercaptoethanol (0.05 mM) [basal medium] and 10% fetal bovine serum (Catalog #16140089, Life Technologies, Carlsbad, Calif.) at 37° C. and 5% CO2.
THP-1 cells were cultured in basal media with 1% FBS for 24 hours before the start of the assay. Each compound was dissolved in DMSO as a 10 mM stock and used to prepare compound source plates. Serial dilution (1:3, 10-point dose-response curves starting from 10 μM) and compound transfer was performed using the ECHO 550 (Labcyte, Sunnyvale, Calif.) into 384-well white low volume assay plates (Greiner Bio-One) with appropriate DMSO backfill for a final DMSO concentration of 0.1%. THP-1 cells were plated at 5000 cells/well in the 384-well plates and incubated at 37° C. for 2 h. 500 ng/mL of LPS was added after 2 hours and cells were incubated for another 22 hours at 37° C. Plates were spun in a centrifuge for 1 minute at […] and a mixture of anti-IL6 XL665, and anti-IL6 Cryptate diluted in reconstitution buffer (Cisbio Inc.) was added to each well. Following incubation for 3 hrs at room temperature, Homogeneous Time-Resolved Fluorescence (HTRF) was measured using the Envision (Perkin Elmer) at 665 nm and […]. The ratio of fluorescence at 665 nm to 620 nm was used as a readout for IL6 quantification. All samples were processed in duplicate. Readings were normalized to DMSO treated cells and normalized activities were utilized for EC50 calculations using the dose-response log (inhibitor) vs. response-variable slope (four parameters) nonlinear regression feature available in GraphPad Prism 5.0 (or Dotmatics). For EC50 of >10 μM, the percent inhibition at 10 μM is provided.

| SMILES | EC50 (SW480 colon cancer cells) | EC50 [1] | EC50 [3] | EC50 [2] |
| --- | --- | --- | --- | --- |
| CN(C)CCNc1cc(F)cc(-c2nccc3[nH]c(-c4n[nH]c5ccc(-c6cncc(CNCC7CCCC7)c6)nc45)nc23)c1 [Compound 473, N^1-(3-(2-(5-(5-(((Cyclopentylmethyl)amino)methyl)pyridin-3-yl)-1H-pyrazolo[4,3-b]pyridin-3-yl)-1H-imidazo[4,5-c]pyridin-4-yl)-5-fluorophenyl)-N^2,N^2-dimethylethane-1,2-diamine] | 8.37 µM | 4.41 µM | 4.66 µM | 5.06 µM |
| c1csc(-c2nccc3[nH]c(-c4n[nH]c5ccc(-c6ccncc6)nc45)nc23)c1 [Compound 354, 5-(Pyridin-4-yl)-3-(4-(thiophen-2-yl)-1H-imidazo[4,5-c]pyridin-2-yl)-1H-pyrazolo[4,3-b]pyridine] | 1.05 µM | 1.07 µM | 9.11 µM | 0.792 µM |
| CN(C)CCNc1cc(F)cc(-c2nccc3[nH]c(-c4n[nH]c5ccc(-c6cncc(OCc7ccccc7)c6)nc45)nc23)c1 [Compound 790, N^1-(3-(2-(5-(5-(Benzyloxy)pyridin-3-yl)-1H-pyrazolo[4,3-b]pyridin-3-yl)-1H-imidazo[4,5-c]pyridin-4-yl)-5-fluorophenyl)-N^2,N^2-dimethylethane-1,2-diamine] | 1.57 µM | 1.11 µM | 0.038 µM | 3.17 µM |
| Cc1ncc(-c2ccc3[nH]nc(-c4nc5c(-c6cc(F)cc(NCCN(C)C)c6)nccc5[nH]4)c3n2)n1C [Compound 781, N^1-(3-(2-(5-(1,2-Dimethyl-1H-imidazol-5-yl)-1H-pyrazolo[4,3-b]pyridin-3-yl)-1H-imidazo[4,5-c]pyridin-4-yl)-5-fluorophenyl)-N^2,N^2-dimethylethane-1,2-diamine] | 6.55 µM | 1.88 µM | 3.91 µM | 3.1 µM |
| c1ccc(CNCc2cncc(-c3ccc4[nH]nc(-c5nc6c(-c7cccnc7)nccc6[nH]5)c4n3)c2)cc1 [Compound 108, N-Benzyl-1-(5-(3-(4-(pyridin-3-yl)-1H-imidazo[4,5-c]pyridin-2-yl)-1H-pyrazolo [4,3-b]pyridin-5-yl)pyridin-3-yl)methanamine] | 2.58 µM | 6.78 µM | 0.123 µM | 9.06 µM |

Further lines, with some results ahead:

| EC50 (SW480 colon cancer cells) | EC50 [1] | EC50 [3] | SMILES | EC50 [2] |
| --- | --- | --- | --- | --- |
| 9.37 µM | 2.2 µM | 3.98 µM | Oc1cncc(-c2ccc3[nH]nc(-c4nc5c(N6CCCCC6)nccc5[nH]4)c3n2)c1 [Compound 613, 5-(3-(4-(Piperidin-1-yl)-1H-imidazo[4,5-c]pyridin-2-yl)-1H-pyrazolo[4,3-b]pyridin-5-yl)pyridin-3-ol] | 9.46 µM |
| 1.96 µM | 3.39 µM | 2.49 µM | FC1(F)CCN(Cc2cncc(-c3ccc4[nH]nc(-c5nc6c(N7CCCCC7)nccc6[nH]5)c4n3)c2)C1 [Compound 194, 5-(5-((3,3-Difluoropyrrolidin-1-yl)methyl)pyridin-3-yl)-3-(4-(piperidin-1-yl)-1H-imidazo[4,5-c]pyridin-2-yl)-1H-pyrazolo[4,3-b]pyridine] | 2.24 µM |
| 3.13 µM | 3.85 µM | 1.49 µM | CN1CCN(c2nccc3[nH]c(-c4n[nH]c5ccc(-c6cncc(OCc7ccccc7)c6)nc45)nc23)CC1 [Compound 646, 5-(5-(Benzyloxy)pyridin-3-yl)-3-(4-(4-methylpiperazin-1-yl)-1H-imidazo[4,5-c]pyridin-2-yl)-1H-pyrazolo[4,3-b]pyridine] | 3.98 µM |
| 2.42 µM | 2.67 µM | 3.42 µM | CN1CCN(c2nccc3[nH]c(-c4n[nH]c5ccc(-c6cncc(OC7CCCCC7)c6)nc45)nc23)CC1 [Compound 639, 5-(5-(Cyclohexyloxy)pyridin-3-yl)-3-(4-(4-methylpiperazin-1-yl)-1H-imidazo[4,5-c]pyridin-2-yl)-1H-pyrazolo[4,3-b]pyridine] | 2.61 µM |
| 3.99 µM | 3.23 µM | 3.81 µM | COc1cncc(-c2ccc3[nH]nc(-c4nc5c(N6CCCCC6)nccc5[nH]4)c3n2)c1 [Compound 612, 5-(5-Methoxypyridin-3-yl)-3-(4-(piperidin-1-yl)-1H-imidazo[4,5-c]pyridin-2-yl)-1H-pyrazolo[4,3-b]pyridine] | 2.92 µM |

Source: patent publication US10195185B2, “3-(1H-imidazo[4,5-C]pyridin-2-yl)-1H-pyrazolo[4,3-B]pyridines and therapeutic uses thereof” (Samumed, LLC, priority 2015, dated 2019)
